Patent US20120022142A1, “RNA Interference Mediated Inhibition of Signal Transducer and Activator of Transcription 1 (STAT1) Gene Expression Using Short Interfering Nucleic Acid (siNA)” (Merck Sharp & Dohme Corp., priority 2009, published 2012)
[invAb] = inverted abasic unit; m = 2'-O-methyl; r = 2'-OH (RNA); f = 2'-fluoro

System: TLR3
Experiment: TLR3 mediated immunostimulation (OAS1 mRNA increase) in NHBE cells
Format: cell-based, human
Details: % increase in OAS1 mRNA, 0.01-100 nM siNA, n = 3 donors
Description: NHBE cell were treated as describe above in Example 2 and used for the measurement of endosomal TLR3 mediated immunostimulation, with the inclusion of polyI:C as a positive control for OAS1 mRNA upregulation. For the measurement of membrane bound TLR3 mediated immunostimulation, the NHBE cells were cultured at 1200 cells/per 96 well and siNAs administered in PBS in the absence of a delivery vehicle at (100 nM, 30 nM, 10 nM, 3 nM, 1 nM, 0.3 nM, 0.1 nM, 0.03 nM, 0.01 nM).
Cell surface TLR3 mediated immunostimulation responses were measured by recording the % increase in OAS1 mRNA levels when the NHBE cells were treated with the siNAs in the absence of a delivery vehicle. (% increase in OAS1 mRNA levels relative to the PBS dilutant).
To determine immunostimulation TLR3 mediated % increase in OAS1(immunostimulatory biomarker) mRNA levels, a nine point dose response was measured using 0.01-100 nM concentration of siNA 25368-DC and siNA 25372-DC.
Endosomal TLR3 mediated immuno stimulation was measured by recording the % increase in OAS1 mRNA levels when the NHBE cells were transfected with the siNAs. (% increase in OAS1 mRNA levels relative to the transfection agent control). The TLR3 agonist Poly I:C is used as a positive control for OAS1 mRNA induction.

| Substance | Immunostimulation TLR3 mediated OAS1 |
| --- | --- |
| 25368-DC: STAT1 siNA duplex, human target site 782; modified strands SEQ ID NO: 73 and 74 (chain 1 GUAAAGUCAGAAAUGUGAATT; chain 2 UUCACAUUUCUGACUUUACUU; chain 1: DNA at AGT, 2'-fluoro at CU, [invAb] at 5' end, 3' end, backbone not given here; chain 2: sugars from the 5' end rrrmfmfffffmmffffmfmm, backbone not given here) | No significant effect up to 100 nM |
| 25372-DC: STAT1 siNA duplex, human target site 968; modified strands SEQ ID NO: 81 and 82 (chain 1 UUGACAAUAAGAGAAAGGATT; chain 2 UCCUUUCUCUUAUUGUCAAUU; chain 1: DNA at AGT, 2'-fluoro at CU, [invAb] at 5' end, 3' end, backbone not given here; chain 2: sugars from the 5' end rrrffffffffmffmffmmmm, backbone not given here) | No significant effect up to 100 nM |
